From US12310952B2, “Traditional Chinese drug monomer composition for treating Helicobacter pylori, preparation method and use thereof” (YOUJIANG MEDICAL UNIVERSITY FOR NATIONALITIES, priority 2023, dated 2025) come the findings set out here.

SMILES strings stand for the structures. Converted amounts (≈) assume the structure as drawn. Read-outs that look alike come from different tables or passages of the source.

As a reminder, the MIC is the smallest concentration in the dilution series that meets the test's criterion for growth inhibition.

Holding throughout (format): cell-based
The subject of one assay is Helicobacter pylori. As to the kind of experiment: Chessboard method, synergistic inhibitory effect of two monomers (FIC). Particulars: monomer used alone, 72 hours. The protocol:
The compositions 1, 2, 3, 4 and 5 are prepared according to Examples 1, 2, 3, 4 and 5, respectively. • 1.2. Strain • (1) Helicobacter pylori strains: standard strains 26695, NSH57, MSD132 and G27 are presented by Dr. Hongkai Bi of Nanjing Medical University; clinical metronidazole drug-resistant strains, clarithromycin drug-resistant strains, levofloxacin drug-resistant strains, levofloxacin and metronidazole drug-resistant strains, clarithromycin and metronidazole drug-resistant strains, levofloxacin and clarithromycin and metronidazole multi drug-resistant strains (HPBS001, HPBS002, HPBS003, and the like) are provided by the Research Center for the Prevention and Treatment of Drug Resistant Microbial Infections of Youjiang Medical University for Nationalities. • (2) Non Helicobacter pylori strains: Staphylococcus aureus, Escherichia coli, Pseudomonas aeruginosa, Acinetobacter baumannii, Klebsiella pneumoniae, Candida albicans, Enterobacter cloacae, Campylobacter jejuni, Bacillus subtilis, Proteus mirabilis, Lactobacillus campylobacter, Stenotrophomonas maltophilia, Morganella morganii, Candida tropicalis, Staphylococcus haemolyticus, Acetobacter, Saccharomyces cerevisiae, Enterobacter hormaechei well is provided by the Research Center for the Prevention and Treatment of Drug Resistant Microbial Infections of Youjiang Medical University for Nationalities. • 1.3 Main culture media and reagents: Columbia culture medium, Brain Heart Infusion Broth, nutrient agar culture medium, nutrient broth culture medium, MH culture medium, Sabouraud culture medium, standard calf serum. • 1.4 Main instruments: three gas incubator, centrifuge, microplate reader, electronic balance, and the like. • 1.5 Consumable materials: EP tube, tip, centrifuge tube, and the like. • 2. […]

In another assay the test system is Helicobacter pylori (Hp). As to the kind of experiment: screening of antibacterial components of traditional Chinese drug, MIC against Hp. The conditions noted are these: monomer alone. An excerpt: The combination of different monomer compositions can resist bacteria, increase the action target of the composition, be conducive to improve the antibacterial effect and reduce the drug resistance of the composition. Therefore, in the present disclosure, according to the quality ratio of Zuojin pills, berberine, evolitrine, and tanshinone I are combined according to a certain quality ratio to inhibit Hp. This combination can synergistically enhance the inhibition of Hp, and is not easy to produce drug resistance, which has an extremely excellent effect on the treatment of Hp infection related diseases.

The subject of assay [1] is Helicobacter pylori G27 strain. Kind of assay: Drug resistance test, induction with 1/4 MIC for 24 days. From the text:
Note: In 6:1:3 group, “>” refers to greater than 46.1+7. 7+23.1. • 2.4 Drug Resistance Test of Prepared 6:1:3 Composition • (1) The drug resistance of […] is detected with Helicobacter pylori G27 strain.

[2] abbreviates: Helicobacter pylori, read-out: MIC.

Turning to `COc1ccc2cc3[n+](cc2c1OC)CCc1cc2c(cc1-3)OCO2` [Berberine, berberine], the figures for the minimal inhibitory concentration (MIC) in the assay with Helicobacter pylori (setting [2]) and with Helicobacter pylori (Hp) (setting [2]) were 16 µg/mL and 16 to 32 µg/mL, respectively.
The matching figures for `COc1ccc2c(OC)c3ccoc3nc2c1` [Evolitrine, evolitrine]: 32 µg/mL and 16 to 32 µg/mL.
Consider `Cc1coc2c1C(=O)C(=O)c1c-2ccc2c(C)cccc12` [Tanshinone I, tanshinone I], for which the minimal inhibitory concentration (MIC) entry is “Tanshinone I (1 μg/mL)” with Helicobacter pylori and 0.5 to 1 µg/mL with Helicobacter pylori (Hp).
For the compound `Cc1ncc([N+](=O)[O-])n1CCO` [metronidazole], in assay [1] (Helicobacter pylori, G27STRAIN, before induction), inhibition of growth (MIC) required 2 µg/mL (≈ 11.7 µM). Moreover, the “MIC increase after induction” value in assay [1] (after 24 days of induction with 1/4 MIC, FIG. 3) turned out to be 64 times.
